Data as given in patent publication US20250250265A1, “BENZOTHIAZOLE-PHENYLSULFONYL-PIPERIDINE ANALOGS AS ACTIVATORS OF NACYLPHOSPHATIDYLETHANOLAMINE HYDROLYZING PHOSPHOLIPASE D” (priority 2022, published 2025).
“Also recorded” adds a separate entry of the source.

Assays:
[1] = biological target: T1, recombinant mouse NAPE-PLD (Mus musculus, UniProt Q8BH82); assay: In vitro competition assay (LEI-401, VU233, VU534) on recombinant mouse Nape-pld; assay type: biochemical
T1 construct: hexahistidine (His6) (C); made in house; host or cells: E. coli
T1 sequence (Q8BH82 1-396): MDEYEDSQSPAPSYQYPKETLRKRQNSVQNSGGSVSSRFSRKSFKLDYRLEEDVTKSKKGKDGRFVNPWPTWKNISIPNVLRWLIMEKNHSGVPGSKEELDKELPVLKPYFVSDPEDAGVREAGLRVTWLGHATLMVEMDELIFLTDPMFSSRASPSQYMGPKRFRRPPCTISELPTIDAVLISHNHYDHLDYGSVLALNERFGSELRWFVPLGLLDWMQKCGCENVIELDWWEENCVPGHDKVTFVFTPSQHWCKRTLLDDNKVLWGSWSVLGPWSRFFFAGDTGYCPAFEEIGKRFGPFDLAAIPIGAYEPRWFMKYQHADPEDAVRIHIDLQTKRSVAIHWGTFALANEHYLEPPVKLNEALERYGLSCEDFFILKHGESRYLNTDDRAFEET
Experimental: A similar in vitro fluorescence Nape-pld activity assay was used for LEI-401 and VU233 competition assays except that this assay was performed using black-walled clear-bottom 96-well plates with 3.5 μM PED-A1 and no N-palmitoyl-dioleoyl-PE used as substrate and read in a BioTek Synergy H1 plate reader with the slope of the fluorescence signal from 0-4 min (linear phase) used as the assay readout. LEI-401, VU233, and VU534 were incubated for 1 h prior to addition of PED-A1. The Michaelis-Menten study used this same assay except with graded concentration of flame-NAPE.

[2] = biological target: T1, recombinant mouse NAPE-PLD; assay: LC/MS NAPE-PLD assay with N-oleoyl-phosphatidylethanolamine (NOPE) as substrate; assay type: biochemical; details: NOPE 90 min (FIG. 19A)
Experimental: For LC/MS assays, N-oleoyl-PE was added as substrate after […] pre-incubation with compound VU534, VU533, VU233 or vehicle. 90 min after N-oleoyl-PE was added, the reaction was quenched by adding 3 volumes of ice-cold methanol containing [^2H4]OEA and [^2H4]N-palmitoyl-PE and then 6 volumes of ice-cold chloroform.33 The lower phase was dried under nitrogen gas and dissolved in 100 μL mobile phase A. High performance liquid chromatography was performed using a 2.1 mm C18 guard column (Phenomenex AJ0-8782), and a rapid gradient ramp. Mobile phase A was 5:1:4 (v/v/v) isopropanol: methanol: water, with 0.2% v/v formic acid, 0.66 mM ammonium formate and 3 μM phosphoric acid included as additives. Mobile phase B was 0.2% (v/v) formic acid in isopropanol. Initial column conditions were 5% mobile phase B, followed by gradient ramp to 95% B over 0.5 min, held at 95% B for 2 min, the returned to initial conditions (5% B) over 1 min. Flow rate throughout was 100 μL/min. Injection volume was 2 μL. The sample injector needle was washed before each injection using a strong wash of methanol, and a weak wash of 1:1:1:1 (v/v/v/V) isopropanol: methanol: acetonitrile: water, with 0.2% formic acid, 0.3 mM ammonium formate, and 0.37 mM phosphoric acid included as additives. Multiple reaction monitoring for the following ions were monitored: OEA [M+H]^+: m/z 326.3→m/z 62.1; [^2H4]OEA [M+H]^+: m/z 330.3→m/z 66.1; N-oleoyl-PE [M+NH4]^+: m/z 693.5→m/z 308.3 (quantifier), m/z 693.5→m/z 271.2 (qualifier); [^2H4]N-palmitoyl-PE [M+NH4]^+: m/z 1003.8→m/z 286.3 (quantifier), m/z 1003.8→m/z 603.5 (qualifier). […]
To confirm the results of the fluorescence-based assays, an orthogonal biochemical Nape-pld assay based on LC/MS was employed. Recombinant mouse NAPE-PLD was pre-treated with VU534, VU533, VU233 or vehicle for 30 min, then N-oleoyl-phosphatidylethanolamine (NOPE) was added for 90 min, and the resulting levels of OEA and NOPE was measured by LC/MS. […]

[3] = system: bone marrow-derived macrophages (BMDM); assay: Efferocytosis assay with bone marrow-derived macrophages and apoptotic Jurkat cells; assay type: cell-based, mouse; details: 10 μM; for effect on efferocytosis by wild-type BMDM: 6 h before assay
Experimental: Male C57BL6/j wild-type or Napepld^−/− mice were euthanized with isoflurane and hind legs were removed. Marrow was flushed from femurs and tibias using DMEM containing 4.5 g/L glucose and a 26-gauge needle. Cell suspensions were passed over a 40-μm filter, centrifuged at 500×g, and resuspended in 50 ml of DMEM containing 4.5 g/L glucose, 20% L-cell conditioned media, 10% heat-inactivated FBS, and 1% penicillin/streptomycin. 10 ml of cell suspension was plated into each of five 100-mm dishes and incubated for four days at 37° C. and 5% CO2. On day four, non-adherent cells and debris were aspirated from the plates and replaced with fresh media. After 7 days of differentiation, cells were harvested for use in experiments.
Assays were performed according to previously described protocols. See e.g., Doran et al. J. Clin. Invest. 127(11): 4075-4089 (2017); Proto et al., Immunity 49(4): 666-677 (2018). Bone marrow-derived macrophages were seeded at 0.25×10^6 cells/well in a non-tissue culture-treated 24-well plate and allowed to adhere overnight. Macrophages were treated with various compounds at a final concentration of 10 μM or DMSO as a vehicle for 6 hours prior to each experiment. Jurkat cells were exposed to UV light (254 nm) for 5 minutes to induce apoptosis and then incubated in a 37° C. incubator with 5% CO2 for 2 hours. Surveillance staining of these cells routinely yielded approximately 80-90% apoptosis (Annexin V+) using this method. Apoptotic Jurkat cells were labeled with either CellVue Claret (Millipore Sigma) or Cell Trace Violet (Invitrogen) per the manufacturer's instructions. After staining, cells were resuspended in macrophage medium at a density of […] and 500 μL of this suspension was added to the drug-containing media on the macrophages to achieve a cell ratio of 3:1 Jurkats: macrophages. After incubating for 45 minutes at 37° C. and 5% CO2, the medium was aspirated, and the macrophages were gently washed twice with PBS to remove unbound apoptotic cells. Macrophages were then removed from the plate using Cell Stripper (Sigma), washed, resuspended in staining buffer consisting of 2% FBS in PBS with 2 mM EDTA, and blocked with anti-mouse CD16/32 antibodies for 15 minutes on ice. After blocking, cells were pelleted and resuspended with F4/80. Cells were incubated for 45 minutes on ice in the dark, then washed and resuspended in staining buffer for analysis. Cells were analyzed using an Attune NxT cytometer (Thermo Fisher) and data were analyzed using FlowJo software to quantify the proportion of F4/80^+ macrophages that co-stained for apoptotic cells (% efferocytosis).

Row | Compound | effect on enzyme activation by 5 μM VU534 ([1]; graded concentrations with 5 μM VU534 (FIG. 19C)) | effect on OEA/NOPE ratio [2] | effect on efferocytosis by wild-type BMDM [3] | increase of Nape-pld activity ([1]; 5 μM, in the absence of LEI-401) [fold] | effect on efferocytosis by Napepld−/− (KO) BMDM ([3]; 6 h, KO BMDM (FIG. 21C)) | effect on efferocytosis by WT BMDM in WT versus KO experiment ([3]; 6 h, WT BMDM (FIG. 21C))
1 | O=C(Nc1nc2ccccc2s1)C1CCN(S(=O)(=O)c2ccc(F)c(Cl)c2)CC1 [VU233] | suppress the enzyme activation of 5 μM VU534 in a concentration-dependent manner | no significant effect | modestly reduced efferocytosis |  |  | 
2 | Cc1ccc(C)c2sc(NC(=O)C3CCN(S(=O)(=O)c4ccc(F)cc4)CC3)nc12 [VU533] |  | significantly increased the OEA/NOPE ratio | significantly enhanced efferocytosis |  |  | 
3 | Cc1cc(C)c2sc(NC(=O)C3CCN(S(=O)(=O)c4ccc(F)cc4)CC3)nc2c1 [VU534, N-(5,7-Dimethylbenzo[d]thiazol-2-yl)-1-((4-fluorophenyl)sulfonyl)piperidine-4-carboxamide] |  | significantly increased the OEA/NOPE ratio | increases efferocytosis capacity; also recorded: significantly enhanced efferocytosis | 1.5 | had no effect | significantly increased efferocytosis
